Source: ChEMBL document CHEMBL4420071, “Method for treating skin with retinoids and retinoid boosters” (2013)

Columns and labels:
Homo sapiens [1] = species: Homo sapiens; assay: Inhibition of transglutaminase in human keratinocytes in presence of retinal relative to retinal alone; type: cell-based; conditions: concentration not given here
Homo sapiens [2] = species: Homo sapiens; assay: Inhibition of transglutaminase in human keratinocytes assessed as mean transglutaminase activity level at 1.6 10^-4M in presence of 10 uM retinal relative to retinal alone; type: cell-based; design: scale not given: the % may be the effect or the level left
Homo sapiens [3] = species: Homo sapiens; assay: Inhibition of transglutaminase in human keratinocytes assessed as mean transglutaminase activity level at 5.33 10^-5M in presence of 10 uM retinal relative to retinal alone; type: cell-based; design: scale not given: the % may be the effect or the level left
Homo sapiens [4] = species: Homo sapiens; assay: Inhibition of transglutaminase in human keratinocytes assessed as mean transglutaminase activity level at 1.78 10^-5M in presence of 10 uM retinal relative to retinal alone; type: cell-based; design: scale not given: the % may be the effect or the level left
Homo sapiens [5] = species: Homo sapiens; assay: Inhibition of transglutaminase in human keratinocytes assessed as mean transglutaminase activity level at 5.93 10^-6M in presence of 10 uM retinal relative to retinal alone; type: cell-based; design: scale not given: the % may be the effect or the level left
Homo sapiens [6] = species: Homo sapiens; assay: Inhibition of transglutaminase in human keratinocytes assessed as mean transglutaminase activity level at 1.98 10^-6M in presence of 10 uM retinal relative to retinal alone; type: cell-based; design: scale not given: the % may be the effect or the level left
Homo sapiens [7] = species: Homo sapiens; assay: Inhibition of transglutaminase in human keratinocytes assessed as mean transglutaminase activity level at 6.58 10^-7M in presence of 10 uM retinal relative to retinal alone; type: cell-based; design: scale not given: the % may be the effect or the level left
Homo sapiens [8] = species: Homo sapiens; assay: Inhibition of transglutaminase in human keratinocytes assessed as mean transglutaminase activity level at 2.19 10^-9M in presence of 10 uM retinal relative to retinal alone; type: cell-based; design: scale not given: the % may be the effect or the level left
Homo sapiens [9] = species: Homo sapiens; assay: Inhibition of transglutaminase in human keratinocytes assessed as mean transglutaminase activity level at 4.39 10^-8M in presence of 10 uM retinal relative to retinal alone; type: cell-based; design: scale not given: the % may be the effect or the level left
Homo sapiens [10] = species: Homo sapiens; assay: Inhibition of transglutaminase in human keratinocytes assessed as mean transglutaminase activity level at 8.78 10^-9M in presence of 10 uM retinal relative to retinal alone; type: cell-based; design: scale not given: the % may be the effect or the level left
Homo sapiens [11] = species: Homo sapiens; assay: Inhibition of transglutaminase in human keratinocytes assessed as mean transglutaminase activity level at 1.79 10^-9M in presence of 10 uM retinal relative to retinal alone; type: cell-based; design: scale not given: the % may be the effect or the level left
Rattus norvegicus = species: Rattus norvegicus; assay: Activation of retinol dehydrogenase in Sprague-Dawley rat liver microsomes assessed as increase in enzyme activity at 100 uM using all-trans retinol and NADP by HPLC analysis relative to control
Homo sapiens [12] = species: Homo sapiens; assay: Inhibition of transglutaminase in human keratinocytes assessed as mean transglutaminase activity level at 4.4 10^-5M in presence of 10 uM retinal relative to retinal alone; type: cell-based; design: scale not given: the % may be the effect or the level left
Homo sapiens [13] = species: Homo sapiens; assay: Inhibition of transglutaminase in human keratinocytes assessed as mean transglutaminase activity level at 1.47 10^-5M in presence of 10 uM retinal relative to retinal alone; type: cell-based; design: scale not given: the % may be the effect or the level left
Homo sapiens [14] = species: Homo sapiens; assay: Inhibition of transglutaminase in human keratinocytes assessed as mean transglutaminase activity level at 4.89 10^-6M in presence of 10 uM retinal relative to retinal alone; type: cell-based; design: scale not given: the % may be the effect or the level left
Homo sapiens [15] = species: Homo sapiens; assay: Inhibition of transglutaminase in human keratinocytes assessed as mean transglutaminase activity level at 1.63 10^-6M in presence of 10 uM retinal relative to retinal alone; type: cell-based; design: scale not given: the % may be the effect or the level left
Homo sapiens [16] = species: Homo sapiens; assay: Inhibition of transglutaminase in human keratinocytes assessed as mean transglutaminase activity level at 5.43 10^-7M in presence of 10 uM retinal relative to retinal alone; type: cell-based; design: scale not given: the % may be the effect or the level left
Homo sapiens [17] = species: Homo sapiens; assay: Inhibition of transglutaminase in human keratinocytes assessed as mean transglutaminase activity level at 1.8 10^-7M in presence of 10 uM retinal relative to retinal alone; type: cell-based; design: scale not given: the % may be the effect or the level left
Homo sapiens [18] = species: Homo sapiens; assay: Inhibition of transglutaminase in human keratinocytes assessed as mean transglutaminase activity level at 6 10^-8M in presence of 10 uM retinal relative to retinal alone; type: cell-based; design: scale not given: the % may be the effect or the level left
Homo sapiens [19] = species: Homo sapiens; assay: Inhibition of transglutaminase in human keratinocytes assessed as mean transglutaminase activity level at 1.2 10^-8M in presence of 10 uM retinal relative to retinal alone; type: cell-based; design: scale not given: the % may be the effect or the level left
Homo sapiens [20] = species: Homo sapiens; assay: Inhibition of transglutaminase in human keratinocytes assessed as mean transglutaminase activity level at 2.4 10^-9M in presence of 10 uM retinal relative to retinal alone; type: cell-based; design: scale not given: the % may be the effect or the level left
Homo sapiens [21] = species: Homo sapiens; assay: Inhibition of transglutaminase in human keratinocytes assessed as mean transglutaminase activity level at 1.14 10^-3M in presence of 10 uM retinal relative to retinal alone; type: cell-based; design: scale not given: the % may be the effect or the level left
Homo sapiens [22] = species: Homo sapiens; assay: Inhibition of transglutaminase in human keratinocytes assessed as mean transglutaminase activity level at 3.8 10^-4M in presence of 10 uM retinal relative to retinal alone; type: cell-based; design: scale not given: the % may be the effect or the level left
Homo sapiens [23] = species: Homo sapiens; assay: Inhibition of transglutaminase in human keratinocytes assessed as mean transglutaminase activity level at 3.3123 10^-4M in presence of 10 uM retinal relative to retinal alone; type: cell-based; design: scale not given: the % may be the effect or the level left
Homo sapiens [24] = species: Homo sapiens; assay: Inhibition of transglutaminase in human keratinocytes assessed as mean transglutaminase activity level at 4.22 10^-5M in presence of 10 uM retinal relative to retinal alone; type: cell-based; design: scale not given: the % may be the effect or the level left
Homo sapiens [25] = species: Homo sapiens; assay: Inhibition of transglutaminase in human keratinocytes assessed as mean transglutaminase activity level at 1.41 10^-6M in presence of 10 uM retinal relative to retinal alone; type: cell-based; design: scale not given: the % may be the effect or the level left
Homo sapiens [26] = species: Homo sapiens; assay: Inhibition of transglutaminase in human keratinocytes assessed as mean transglutaminase activity level at 4.69 10^-7M in presence of 10 uM retinal relative to retinal alone; type: cell-based; design: scale not given: the % may be the effect or the level left
Homo sapiens [27] = species: Homo sapiens; assay: Inhibition of transglutaminase in human keratinocytes assessed as mean transglutaminase activity level at 6.26 10^-8M in presence of 10 uM retinal relative to retinal alone; type: cell-based; design: scale not given: the % may be the effect or the level left
Homo sapiens [28] = species: Homo sapiens; assay: Inhibition of transglutaminase in human keratinocytes assessed as mean transglutaminase activity level at 1.25 10^-8M in presence of 10 uM retinal relative to retinal alone; type: cell-based; design: scale not given: the % may be the effect or the level left
Homo sapiens [29] = species: Homo sapiens; assay: Inhibition of transglutaminase in human keratinocytes assessed as mean transglutaminase activity level at 6.9 10^-9M in presence of 10 uM retinal relative to retinal alone; type: cell-based; design: scale not given: the % may be the effect or the level left
Homo sapiens [30] = species: Homo sapiens; assay: Inhibition of transglutaminase in human keratinocytes assessed as mean transglutaminase activity level at 1.0 10^-9M in presence of 10 uM retinal relative to retinal alone; type: cell-based; design: scale not given: the % may be the effect or the level left
Homo sapiens [31] = species: Homo sapiens
Description: Inhibition of transglutaminase in human keratinocytes in presence of 10 uM retinal relative to retinal alone

[32] = target: T1, Cellular retinoic acid-binding protein 2 (Homo sapiens) (UniProt P29373); assay: Inhibition of radioactive all-trans retinoic acid binding to CRABP2 (unknown origin) expressed in Escherichia coli BLR(DE3)pLys incubated for 1 hr by scintillation counting assay; conditions: concentration not given here
T1 sequence (whole entry): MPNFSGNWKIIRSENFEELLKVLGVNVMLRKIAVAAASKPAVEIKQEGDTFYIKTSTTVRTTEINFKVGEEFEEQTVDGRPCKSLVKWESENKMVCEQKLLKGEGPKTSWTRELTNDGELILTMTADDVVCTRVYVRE

Homo sapiens [33] = species: Homo sapiens; assay: Inhibition of transglutaminase in human keratinocytes assessed as mean transglutaminase activity level at 1.0 10^-3M in presence of 10 uM retinal relative to retinal alone; type: cell-based; design: scale not given: the % may be the effect or the level left
Homo sapiens [34] = species: Homo sapiens; assay: Inhibition of transglutaminase in human keratinocytes assessed as mean transglutaminase activity level at 1.1 10^-4M in presence of 10 uM retinal relative to retinal alone; type: cell-based; design: scale not given: the % may be the effect or the level left
Homo sapiens [35] = species: Homo sapiens; assay: Inhibition of transglutaminase in human keratinocytes assessed as mean transglutaminase activity level at 3.73 10^-4M in presence of 10 uM retinal relative to retinal alone; type: cell-based; design: scale not given: the % may be the effect or the level left
Homo sapiens [36] = species: Homo sapiens; assay: Inhibition of transglutaminase in human keratinocytes assessed as mean transglutaminase activity level at 1.23 10^-5M in presence of 10 uM retinal relative to retinal alone; type: cell-based; design: scale not given: the % may be the effect or the level left
Homo sapiens [37] = species: Homo sapiens; assay: Inhibition of transglutaminase in human keratinocytes assessed as mean transglutaminase activity level at 4.1 10^-5M in presence of 10 uM retinal relative to retinal alone; type: cell-based; design: scale not given: the % may be the effect or the level left
Homo sapiens [38] = species: Homo sapiens; assay: Inhibition of transglutaminase in human keratinocytes assessed as mean transglutaminase activity level at 8.2 10^-6M in presence of 10 uM retinal relative to retinal alone; type: cell-based; design: scale not given: the % may be the effect or the level left
Homo sapiens [39] = species: Homo sapiens; assay: Inhibition of transglutaminase in human keratinocytes assessed as mean transglutaminase activity level at 1.65 10^-7M in presence of 10 uM retinal relative to retinal alone; type: cell-based; design: scale not given: the % may be the effect or the level left
Homo sapiens [40] = species: Homo sapiens; assay: Inhibition of transglutaminase in human keratinocytes assessed as mean transglutaminase activity level at 3.29 10^-7M in presence of 10 uM retinal relative to retinal alone; type: cell-based; design: scale not given: the % may be the effect or the level left
Homo sapiens [41] = species: Homo sapiens; assay: Inhibition of transglutaminase in human keratinocytes assessed as mean transglutaminase activity level at 5.0 10^-8M in presence of 10 uM retinal relative to retinal alone; type: cell-based; design: scale not given: the % may be the effect or the level left
Homo sapiens [42] = species: Homo sapiens; assay: Inhibition of transglutaminase in human keratinocytes assessed as mean transglutaminase activity level at 1.1 10^-8M in presence of 10 uM retinal relative to retinal alone; type: cell-based; design: scale not given: the % may be the effect or the level left

O=C(NCNC(=O)NC1C(=O)NC(=O)N1CO)NC1C(=O)NC(=O)N1CO (centres undefined)
inhibition (Homo sapiens [1]): 35%

CCCCCCCC(=O)OC[C@H](COP(=O)([O-])OCC[N+](C)(C)C)OC(=O)CCCCCCC
Activity (Homo sapiens [2]): 58.1% | Activity (Homo sapiens [3]): 95.4% | Activity (Homo sapiens [4]): 104% | Activity (Homo sapiens [5]): 129% | Activity (Homo sapiens [6]): 110% | Activity (Homo sapiens [7]): 92.8% | Activity (Homo sapiens [8]): 88.6% | Activity (Homo sapiens [9]): 127% | Activity (Homo sapiens [10]): 119% | Activity (Homo sapiens [11]): 82%

CCCCCCCC/C=C\CCCCCCCC(=O)OC[C@H](COP(=O)([O-])OCC[N+](C)(C)C)OC(=O)CCCCCCCCCCCCCCC
Activity (Rattus norvegicus): 21% | Activity (Homo sapiens [12]): 90.9% | Activity (Homo sapiens [13]): 120% | Activity (Homo sapiens [14]): 70.1% | Activity (Homo sapiens [15]): 98.8% | Activity (Homo sapiens [16]): 86.7% | Activity (Homo sapiens [17]): 75.9% | Activity (Homo sapiens [18]): 87.8% | Activity (Homo sapiens [19]): 159% | Activity (Homo sapiens [20]): 85.5%

O=C(Nc1ccc(Cl)cc1)Nc1ccc(Cl)c(Cl)c1
Activity (Homo sapiens [21]): 36.3% | Activity (Homo sapiens [22]): 3.8% | Activity (Homo sapiens [23]): -3.2% | Activity (Homo sapiens [24]): -11.2% | Activity (Homo sapiens [25]): -0.3% | Activity (Homo sapiens [26]): 15.9% | Activity (Homo sapiens [27]): 18.9% | Activity (Homo sapiens [28]): 100% | Activity (Homo sapiens [29]): 77.6% | Activity (Homo sapiens [30]): 54.4% | IC20 (Homo sapiens [31]): 6.18 ×10⁻⁷ M

CC(C)CCCCCCCCCCCCCCC(=O)O
inhibition [32]: > 50% | Activity (Homo sapiens [33]): -8.6% | Activity (Homo sapiens [34]): 1.2% | Activity (Homo sapiens [35]): -5.3% | Activity (Homo sapiens [36]): 80% | Activity (Homo sapiens [37]): 67% | Activity (Homo sapiens [38]): 103% | Activity (Homo sapiens [39]): 95% | Activity (Homo sapiens [40]): 123% | Activity (Homo sapiens [41]): 78% | Activity (Homo sapiens [42]): 78% | IC20 (Homo sapiens [31]): 6.23 ×10⁻⁵ M
